Measurements: the METLIN SMRT retention time set (Domingo-Almenara et al. 2019)

Test: gradient 5% acetonitrile 3 min, to 50% in 2 min, to 85% in 15 min, held 3 min, 100 µL/min
Conditions: column: Zorbax Extend-C18 2.1 x 50 mm; eluents: water / acetonitrile, 0.1% formic acid
Outline: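 The mobile phases were water and acetonitrile, each with 0.1% formic acid, pumped at 100 μL/min through a Zorbax Extend-C18 column (2.1 × 50 mm, 1.8 μm). Pure standards were injected as mixtures of ~100 molecules and detected by a quadrupole time-of-flight mass spectrometer in positive and negative ionization mode. Retention time came from computationally picked adduct peaks, each inspected by hand.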

| Compound | RP-LC retention time [s] |
| --- | --- |
| CCOC(=O)c1c(C)[nH]c(C(=O)N2CCC(CC(=O)N(C)Cc3ccco3)CC2)c1C | 765 |
| NS(=O)(=O)c1nn2cc(-c3ccccc3)nc2s1 | 813 |
| COCCCCC(=NOCCN)c1ccc(C(F)(F)F)cc1 | 734 |
| CN(C)CCn1nnc2cc(-c3noc(-c4cccc(F)c4)n3)ccc21 | 676 |
| O=C(CCCc1ccccc1)N1CCN(c2ccc(Nc3cccnc3)nn2)CC1 | 575 |
| CCCNC(=O)N1CCCCCC1CN1CCC(C)CC1 (centres undefined) | 624 |
| CN1Cc2ccccc2-n2ccnc2C12CCN(C(=O)c1ccc(Br)o1)CC2 | 615 |
| CCc1ccc(OCc2nc(CCN(C)C(=O)c3ccco3)no2)cc1 | 910 |
| CC1=NS(=O)(=O)N(Cc2ccccc2)C=C1C(=O)OCc1ccc(F)cc1F | 1090 |
| Cc1nnc(C(C)C)n1C1C[C@H]2CC[C@@H](C1)N2CC[C@H](NC(=O)C1CCC(F)(F)CC1)c1ccccc1 (some centres undefined) | 666 |
| COC(=O)C(C)NC(=O)NCc1cccn1Cc1ccccc1 (centres undefined) | 794 |
| COc1ccc(-c2cc(C(=O)N(C)C3CCCCC3)nn2C2CCS(=O)(=O)C2)cc1 (centres undefined) | 924 |
| O=C(c1[nH]c2ccccc2c1Sc1ccc(Cl)cc1)N1CCN(c2ccccn2)CC1 | 825 |
| COc1cc(CC(=O)N2CCc3cc(-c4csc(C)n4)ccc32)cc(OC)c1 | 1020 |
| CC(=O)CC(=O)Nc1ccc2ccccc2c1 | 800 |
| COCCCNC(=O)CN1C(=O)CC(c2ccc(Br)s2)=Nc2ccccc21 | 849 |
| Cn1nccc1C(=O)N1CCCCCCNC(=O)[C@@H]2CCCC[C@@H]21 | 705 |
| COc1cc2c(c(OC)c1OC)-c1ccc(OC)c(=O)cc1[C@@H](NC(=O)c1ccccc1)CC2 | 722 |
| CCOC(=O)C1CCCN(C(=O)C2CCN(c3cc(N4CCCCC4)ncn3)CC2)C1 (centres undefined) | 666 |
| O=C(Nc1cccc(F)c1)N1CCCC(Cn2c(C3CC3)nc3cccnc32)C1 (centres undefined) | 676 |
| COc1ccccc1NC(=O)C1CC(=O)N(c2ccc3c(c2)CCN3C(=O)C2CC2)C1 (centres undefined) | 778 |
| O=C(CSc1nnc(Cc2ccccc2)o1)Nc1nc(-c2ccccc2)cs1 | 936 |
| COCC1CN(S(=O)(=O)c2ccc(F)c(C)c2)CC12CCNCC2 (centres undefined) | 636 |

| Compound | RP-LC retention time [s] |
| --- | --- |
| Cc1cc(C)cc(N2CCC(NC(=O)c3ccc(C#N)cc3)C2=O)c1 (centres undefined) | 854 |
| COc1ccc(-c2nnc(COc3ccc(NC(=O)C4CCN(C(C)=O)CC4)cc3)o2)cc1 | 703 |
| COc1ccc(CC(=O)N2CCCC2c2nc(-c3ccc(OC)c(OC)c3)no2)cc1OC (centres undefined) | 801 |
| Cc1ccc(CNC(=O)C(=O)NCC(c2ccc3c(c2)CCCN3C)N2CCOCC2)cc1 (centres undefined) | 610 |
| Cc1cc(C)c(C(=O)N2CCC(CC(=O)NCc3ccc4c(c3)OCO4)CC2)[nH]1 | 724 |
| COc1ccc2c(c1)C1(CCN(C(=O)c3ccccc3OC)C1)C(=O)N2 (centres undefined) | 709 |
| Cc1ccc(N2CC(c3noc(-c4cc(Cl)ccc4F)n3)CC2=O)cc1 (centres undefined) | 1090 |
| CC(=O)Nc1ccc(-c2noc(C3CCCN(C(=O)CCC4CCCC4)C3)n2)cc1 (centres undefined) | 923 |
| COc1ccccc1NC(=O)N1CCC(CNS(=O)(=O)Cc2cccc(F)c2)CC1 | 787 |
| CCOC(=O)c1cc(S(=O)(=O)N2CCCC2C(=O)NCc2ccc(C)o2)cn1C (centres undefined) | 846 |
| COc1ccc(-c2nnc(Cc3nc(-c4cccc(C)c4)no3)o2)cc1OC | 983 |
| Cc1ccc(S(=O)(=O)N2CCc3c(c(-c4nnc(-c5ccc(F)cc5)o4)nn3C)C2)c(C)c1 | 1060 |
| O=C(CSc1nc(-c2cccc([N+](=O)[O-])c2)cs1)NCc1ccc2c(c1)OCO2 | 865 |
| CCNC(=O)C1CCc2sc(C(=O)N3CCOCC3)cc2C1 (centres undefined) | 632 |
| COc1ccc2cccc(CCNC(C)=O)c2c1 | 696 |
| Cc1nn(C)c(C)c1S(=O)(=O)NCCc1noc(-c2cccnc2)n1 | 643 |
| O=c1n(Cc2cccc(C(F)(F)F)c2)nc2c(S(=O)(=O)N3CCc4ccccc4C3)cccn12 | 1010 |
| Cc1nnc(-c2ccc3ccn(CC(=O)Nc4cccc(CN5CCCC5)c4)c3c2)o1 | 610 |
| CC1=C(c2ccccc2)S(=O)(=O)N=C1N1CCCN(C(=O)Nc2ccccc2)CC1 | 669 |
| Cc1ccc(-n2cc3c(N4CCCC(C(=O)NCCC5=CCCCC5)C4)ncnc3n2)cc1 (centres undefined) | 792 |
| CCc1ccc(NC(=O)Nc2ccc3nc(N4CCN(C)CC4)cc(C)c3c2)cc1 | 609 |
| CC(C)CC(=O)N1CCc2nc(-c3ccccc3)ncc2C1 | 868 |
| COCc1ncc(C)n1C1CCN(C(=O)c2ccc(Cc3c(C)noc3C)o2)C1 (centres undefined) | 602 |

| Compound | RP-LC retention time [s] |
| --- | --- |
| CS(=O)(=O)Nc1ccc(N2CCCCS2(=O)=O)cc1 | 615 |
| Cc1ccccc1CNS(=O)(=O)c1c(C)sc(C)c1-c1n[nH]c(C)c1C | 1060 |
| COc1cc(C(=O)OC(C)CN2CCOCC2)cc(OC)c1OC (centres undefined) | 662 |
| Cc1ccc(C)c(S(=O)(=O)N2CC(c3nc(Cc4ccccc4)no3)C2)c1 | 1040 |
| CCC(=O)N1CCN(c2ccc(-n3c(=O)ccc4cnc5ccc(-c6cnc7ccccc7c6)cc5c43)cc2C(F)(F)F)CC1 | 861 |
| CCc1nnc(NC(=O)CSc2nnc(-c3ccc(Cl)cc3)o2)s1 | 826 |
| CCNC(=O)c1nc(-c2ccnc(N3CCOCC3)c2)no1 | 644 |
| COCCCNC(=O)C1CCCN(C(=O)c2[nH]c(C)cc2C)C1 (centres undefined) | 652 |
| O=C(O)c1cc(-c2cccc3ccccc23)nc2ccc(Br)cc12 | 1090 |
| O=C(CSc1nccn1-c1ccc([N+](=O)[O-])cc1)NC1CCCCC1 | 730 |
| CC(C)c1ccc(S(=O)(=O)N2CC=C(c3cn(C)c4ncccc34)CC2)cc1 | 1130 |
| Fc1ccc(-c2noc(-c3nnn4c3COC(c3ccc(Cl)cc3)C4)n2)cc1 (centres undefined) | 1250 |
| NS(=O)(=O)c1ccc(CCNC(=O)CCCn2cccc2)cc1 | 627 |
| Cc1nc(N)n(CC(=O)NCc2ccc(F)cc2)c(=O)c1C | 842 |
| Cc1nc(N2CCCC2)c2c(C(=O)Nc3cccc(F)c3)c(C)oc2n1 | 784 |
| CCC(=O)Nc1ccc2c(c1)CN(C(=O)c1cccc(Cl)c1)C(C(=O)N1CCCC1)C2 (centres undefined) | 1070 |
| O=C(NCCCn1c(-c2ccncc2)nc2cccnc21)Nc1ccc(Br)cc1F | 718 |
| COc1ccc(CNc2nc(-c3ccccc3)nnc2C)cc1 | 683 |
| O=C(Cn1nc2c3sc(N4CCCCC4)nc3ncn2c1=O)Nc1ccc(Cl)cc1 | 832 |
| COc1ncc(C(=O)N2CCc3ccccc3C2)cn1 | 729 |
| CCCn1ccc2oc(C)c(C(=O)NCc3ccc(CC)cc3)c2c1=O | 1170 |
| CCN(CC)CCNc1ncnc2onc(-c3ccc(F)cc3)c12 | 625 |
| CS(=O)(=O)N(Cc1ccccn1)C1CN(C(=O)CCc2nc3ccccc3s2)C1 | 656 |

| Compound | RP-LC retention time [s] |
| --- | --- |
| CCOC(=O)N1CCC(NC(=O)CCc2cc3cc(C)ccc3[nH]c2=O)CC1 | 677 |
| COc1c(C)cnc(Cn2ccn3nc(-c4ccc(F)cc4)c(CO)c3c2=O)c1C | 843 |
| Cc1ccc2c(c1)NC(=O)c1cc(NS(=O)(=O)c3ccccc3F)ccc1O2 | 571 |
| CCOc1cc(=O)n2c(c1C(=O)Nc1cc(Cl)c(OC)cc1OC)CCCC2 | 758 |
| O=C(c1ccc2c(c1)OCO2)N1CCC2(CC1)N=C(c1ccc(Cl)cc1)NO2 | 956 |
| CN1C(=O)C2CCCCN2c2ccc(C(=O)NCCN3CCCCC3)cc21 (centres undefined) | 609 |
| Cc1ccc(Nc2c(-c3ccccc3O)nc3cc(C)ccn23)cc1 | 701 |
| COc1ccc(CNC(=O)C2=C3CCCN3c3ccc(F)cc3S2(=O)=O)cc1 | 876 |
| O=C(NC1CC1)c1ccccc1OCC1CCN(C(=O)C2CCCO2)CC1 (centres undefined) | 685 |
| COc1cc(-c2ccc(Cl)cc2)nc2ccc(NC(=O)c3cccs3)cc12 | 814 |
| CCC(C(=O)NCCN1CCOCC1)n1nc(C)c2nn(-c3ccccc3)c(C)c2c1=O (centres undefined) | 640 |
| Cc1c(C)n(-c2ccccc2)c2ncn(CC(=O)NCc3ccco3)c(=O)c12 | 809 |
| CN1C(=O)c2cccnc2Sc2cc(NC(=O)c3ccccc3F)ccc21 | 758 |
| CCCNC(=O)N(C1CCOCC1)C1CCN(C(=O)Nc2c(F)cccc2F)CC1 | 685 |
| Cc1cc(C)cc(NC(=O)N2CCCC2c2nncn2C2CCCC2)c1 (centres undefined) | 722 |
| Cc1ccc(-c2cn3cccc(C)c3n2)cc1NS(=O)(=O)c1ccc(Cl)cc1 | 714 |
| COCCn1c(C2CCN(S(=O)(=O)c3ccc(C(C)C)cc3)C2)nc2cccnc21 (centres undefined) | 927 |
| Cc1ccc(N2CCN(S(=O)(=O)c3cc(-c4nnc(C5CC5)o4)co3)CC2)cc1 | 818 |
| CC(C)n1c(SCC(=O)N(C)C)nnc1-c1ccc2c(c1)OCCCO2 | 691 |
| CCOc1ccccc1NS(=O)(=O)c1ccccc1-c1nc(-c2ccc(F)cc2)no1 | 1150 |
